Legend:
[1] = target: Tyrosine-protein kinase JAK1 (Homo sapiens, UniProt P23458); assay: (§1) JAK/TYK2 Assay: 10 mM test compound stock or 1 mM control compound stock (tofocitinib, ruxolitinib or staurosporine) in DMSO was diluted to 0.4 mM in DMSO. A 3-fold series dilution was then performed in DMSO to generate 10 different compound concentrations. The assay was carried out in 384-well white plate. 0.5 uL of 40× compound DMSO solution at different concentrations was mixed with 10 uL 2× enzyme prepared in reaction buffer (20 mM HEPES, 10 mM MgCl2, 0.01% Tween, 1 mM DTT, pH 7.5). 10 uL 2× substrate mixture prepared in reaction buffer was then added to start the reaction. A short spin was done to settle down all solutions to the bottom of the plate. Final concentrations of test compound in the reaction mixture were 10000, 3333, 1111, 370, 123, 41.2, 13.7, 4.57, 1.52and 0.51 nM. Concentrations of control compound were ten times less. Enzymatic reaction was conducted at 25° C. for 1-2 hours. 10 uL of Kinase Glo Reagents was added to stop the reaction and generate the luminescent signal which was measured using Envision. Luminescence signal was inversely related to kinase activity. […] The mixture without any compound was the positive control.
Tyrosine-protein kinase JAK1, sequence (P23458 whole entry): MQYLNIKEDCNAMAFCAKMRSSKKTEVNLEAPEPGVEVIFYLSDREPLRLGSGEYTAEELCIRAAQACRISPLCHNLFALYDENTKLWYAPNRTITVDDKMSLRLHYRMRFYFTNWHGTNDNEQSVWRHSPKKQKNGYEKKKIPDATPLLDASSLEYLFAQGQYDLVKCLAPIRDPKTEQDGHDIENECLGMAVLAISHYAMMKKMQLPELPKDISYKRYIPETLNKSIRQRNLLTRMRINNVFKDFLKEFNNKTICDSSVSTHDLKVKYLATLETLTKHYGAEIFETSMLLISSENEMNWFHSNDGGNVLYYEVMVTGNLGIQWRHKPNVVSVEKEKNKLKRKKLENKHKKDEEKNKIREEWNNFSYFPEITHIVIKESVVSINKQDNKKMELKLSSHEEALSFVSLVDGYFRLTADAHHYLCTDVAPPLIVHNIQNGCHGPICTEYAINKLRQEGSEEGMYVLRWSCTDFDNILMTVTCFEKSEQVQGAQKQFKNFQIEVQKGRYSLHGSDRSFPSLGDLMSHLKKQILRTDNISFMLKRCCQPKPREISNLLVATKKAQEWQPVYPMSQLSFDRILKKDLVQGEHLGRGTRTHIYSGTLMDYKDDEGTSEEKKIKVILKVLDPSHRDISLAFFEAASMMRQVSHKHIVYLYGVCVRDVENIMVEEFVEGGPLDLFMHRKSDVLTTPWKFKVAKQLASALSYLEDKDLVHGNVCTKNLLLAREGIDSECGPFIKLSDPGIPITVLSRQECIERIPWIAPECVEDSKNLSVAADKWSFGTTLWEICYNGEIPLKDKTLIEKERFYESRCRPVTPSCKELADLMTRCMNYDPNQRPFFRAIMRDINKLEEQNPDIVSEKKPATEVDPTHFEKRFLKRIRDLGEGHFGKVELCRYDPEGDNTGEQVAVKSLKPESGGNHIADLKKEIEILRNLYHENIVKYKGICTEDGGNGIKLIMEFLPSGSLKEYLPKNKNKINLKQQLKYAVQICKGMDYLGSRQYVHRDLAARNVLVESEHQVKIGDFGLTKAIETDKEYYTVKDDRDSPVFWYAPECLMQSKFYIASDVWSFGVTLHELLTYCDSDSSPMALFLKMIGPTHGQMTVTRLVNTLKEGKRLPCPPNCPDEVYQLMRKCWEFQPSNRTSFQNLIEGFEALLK

[2] = target: T1, Tyrosine-protein kinase JAK3 (Homo sapiens, UniProt P52333); assay: as §1
T1 sequence (P52333 whole entry): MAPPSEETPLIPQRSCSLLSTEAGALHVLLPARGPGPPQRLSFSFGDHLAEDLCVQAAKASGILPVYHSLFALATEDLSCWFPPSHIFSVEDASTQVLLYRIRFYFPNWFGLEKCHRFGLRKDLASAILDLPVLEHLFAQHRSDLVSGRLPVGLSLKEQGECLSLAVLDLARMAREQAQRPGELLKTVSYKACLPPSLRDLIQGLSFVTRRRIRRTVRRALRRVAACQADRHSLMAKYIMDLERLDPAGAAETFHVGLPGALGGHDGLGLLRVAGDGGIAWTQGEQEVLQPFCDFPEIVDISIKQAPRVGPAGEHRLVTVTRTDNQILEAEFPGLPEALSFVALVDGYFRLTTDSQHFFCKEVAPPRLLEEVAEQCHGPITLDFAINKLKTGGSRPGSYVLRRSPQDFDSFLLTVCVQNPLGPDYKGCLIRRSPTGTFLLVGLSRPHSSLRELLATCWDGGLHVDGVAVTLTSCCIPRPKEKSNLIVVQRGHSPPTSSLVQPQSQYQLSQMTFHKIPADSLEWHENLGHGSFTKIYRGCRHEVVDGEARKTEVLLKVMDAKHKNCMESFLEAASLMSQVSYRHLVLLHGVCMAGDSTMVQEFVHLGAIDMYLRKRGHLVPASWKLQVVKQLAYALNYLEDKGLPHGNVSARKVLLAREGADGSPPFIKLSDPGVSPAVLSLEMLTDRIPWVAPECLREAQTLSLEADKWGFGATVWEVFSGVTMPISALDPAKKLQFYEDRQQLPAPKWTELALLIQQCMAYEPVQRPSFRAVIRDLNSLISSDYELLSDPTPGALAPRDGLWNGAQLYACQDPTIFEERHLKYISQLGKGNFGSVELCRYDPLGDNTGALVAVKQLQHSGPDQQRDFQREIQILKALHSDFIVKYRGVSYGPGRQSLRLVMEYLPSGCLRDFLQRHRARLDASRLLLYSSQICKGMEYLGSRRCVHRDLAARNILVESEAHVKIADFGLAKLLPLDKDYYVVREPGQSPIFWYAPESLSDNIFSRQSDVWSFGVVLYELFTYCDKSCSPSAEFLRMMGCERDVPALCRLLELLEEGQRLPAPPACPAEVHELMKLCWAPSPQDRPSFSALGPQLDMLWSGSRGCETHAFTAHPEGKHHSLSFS

[3] = target: Non-receptor tyrosine-protein kinase TYK2 (Homo sapiens, UniProt P29597); assay: as §1
Non-receptor tyrosine-protein kinase TYK2, sequence (P29597 whole entry): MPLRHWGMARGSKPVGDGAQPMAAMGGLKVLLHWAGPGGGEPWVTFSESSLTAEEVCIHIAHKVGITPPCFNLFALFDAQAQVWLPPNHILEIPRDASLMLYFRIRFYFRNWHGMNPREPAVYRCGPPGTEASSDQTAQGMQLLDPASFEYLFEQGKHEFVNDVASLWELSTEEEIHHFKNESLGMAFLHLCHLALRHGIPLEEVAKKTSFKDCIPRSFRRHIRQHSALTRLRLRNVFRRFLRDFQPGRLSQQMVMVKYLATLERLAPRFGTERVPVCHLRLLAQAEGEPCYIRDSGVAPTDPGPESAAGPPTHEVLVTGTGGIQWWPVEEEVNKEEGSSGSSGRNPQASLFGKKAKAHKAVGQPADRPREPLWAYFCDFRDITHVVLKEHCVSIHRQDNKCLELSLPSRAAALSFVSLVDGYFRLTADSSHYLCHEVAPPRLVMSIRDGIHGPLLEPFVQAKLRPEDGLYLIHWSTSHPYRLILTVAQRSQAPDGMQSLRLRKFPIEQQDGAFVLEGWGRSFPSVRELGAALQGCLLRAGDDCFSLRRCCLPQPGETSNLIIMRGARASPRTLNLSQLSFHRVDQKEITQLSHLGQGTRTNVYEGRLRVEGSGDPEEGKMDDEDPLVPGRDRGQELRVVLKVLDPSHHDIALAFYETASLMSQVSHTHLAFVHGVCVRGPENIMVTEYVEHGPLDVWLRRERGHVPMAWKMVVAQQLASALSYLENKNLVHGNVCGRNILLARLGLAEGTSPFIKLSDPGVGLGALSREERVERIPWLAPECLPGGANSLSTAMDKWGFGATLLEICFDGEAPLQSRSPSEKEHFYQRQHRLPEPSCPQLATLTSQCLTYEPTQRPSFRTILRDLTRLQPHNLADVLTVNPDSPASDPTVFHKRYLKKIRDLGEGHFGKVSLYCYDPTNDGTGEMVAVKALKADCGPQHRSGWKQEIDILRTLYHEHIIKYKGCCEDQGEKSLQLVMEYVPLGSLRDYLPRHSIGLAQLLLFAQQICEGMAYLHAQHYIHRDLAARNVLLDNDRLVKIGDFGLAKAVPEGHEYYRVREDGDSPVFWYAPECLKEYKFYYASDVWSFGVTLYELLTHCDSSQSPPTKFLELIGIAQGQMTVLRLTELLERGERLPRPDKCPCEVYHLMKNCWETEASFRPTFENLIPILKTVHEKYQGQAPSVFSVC

[4] = target: Tyrosine-protein kinase JAK2 (Homo sapiens, UniProt O60674); assay: as §1, with “Final concentrations of test compound in the reaction mixture were 10000, 3333, 1111, 370, 123, 41.2, 13.7, 4.57, 1.52and 0.51 nM.” left out
Tyrosine-protein kinase JAK2, sequence (O60674 whole entry): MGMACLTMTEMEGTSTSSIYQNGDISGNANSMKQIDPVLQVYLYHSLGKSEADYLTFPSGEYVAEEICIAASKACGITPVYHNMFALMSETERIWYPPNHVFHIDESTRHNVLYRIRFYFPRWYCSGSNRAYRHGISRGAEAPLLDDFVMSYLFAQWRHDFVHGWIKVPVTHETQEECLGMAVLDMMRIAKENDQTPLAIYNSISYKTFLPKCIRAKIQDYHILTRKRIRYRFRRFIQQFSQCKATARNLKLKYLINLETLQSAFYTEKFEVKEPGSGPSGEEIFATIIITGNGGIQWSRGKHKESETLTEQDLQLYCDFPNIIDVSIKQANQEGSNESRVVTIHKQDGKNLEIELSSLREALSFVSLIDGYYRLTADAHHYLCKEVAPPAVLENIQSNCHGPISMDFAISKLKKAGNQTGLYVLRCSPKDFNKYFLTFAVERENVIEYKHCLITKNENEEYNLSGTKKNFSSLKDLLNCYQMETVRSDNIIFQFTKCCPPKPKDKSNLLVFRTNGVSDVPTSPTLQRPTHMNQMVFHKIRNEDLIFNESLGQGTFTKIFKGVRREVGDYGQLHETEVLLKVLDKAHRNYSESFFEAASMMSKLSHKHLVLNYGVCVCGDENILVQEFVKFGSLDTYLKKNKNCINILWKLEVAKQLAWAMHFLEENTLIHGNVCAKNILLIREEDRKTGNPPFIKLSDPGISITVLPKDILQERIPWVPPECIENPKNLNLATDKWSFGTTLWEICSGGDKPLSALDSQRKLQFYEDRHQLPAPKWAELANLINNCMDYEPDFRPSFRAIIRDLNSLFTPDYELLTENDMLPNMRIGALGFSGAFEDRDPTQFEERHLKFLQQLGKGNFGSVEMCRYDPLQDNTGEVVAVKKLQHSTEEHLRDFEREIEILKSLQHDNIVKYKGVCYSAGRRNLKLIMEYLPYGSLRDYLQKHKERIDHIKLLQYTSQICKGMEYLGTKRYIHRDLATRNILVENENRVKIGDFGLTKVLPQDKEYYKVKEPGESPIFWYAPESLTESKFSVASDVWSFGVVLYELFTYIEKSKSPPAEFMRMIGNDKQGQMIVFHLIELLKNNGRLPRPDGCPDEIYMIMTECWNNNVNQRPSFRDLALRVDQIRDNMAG

Measured: IC50

CCC(CC)Cn1ccc2cnc(Nc3cnn(CC(=O)OCC4OC(O)CC(O)C4O)c3)nc21 (stereo not drawn)
< 100 nM: [1] | [2] | [3] | [4]

CC[C@H](Cn1ccc2cnc(Nc3cnn([C@@H](CCO)C(=O)O)c3)nc21)C(C)C
< 100 nM: [1] | [2] | [3] | [4]
